The text below walks through data of patent publication US6734163B2, “Compositions and methods for inhibiting cellular proliferation” (EntreMed, Inc., priority 1997, dated 2004).

Entries after “also recorded” stand apart in the source; their conditions may differ. Where two headings read alike, the source gives them in different places.

For this assay, the system named is human umbilical vein endothelial (HUVE) cells. Briefly: bFGF-induced proliferation of HUVE cells (uridine incorporation). It is filed as cell-based. The note with it: for antiproliferative activity, plasma TFPI compared with HepG2 TFPI: HUVE cell proliferation assay, FIG. 4; for Effect on Proliferation: bFGF 10 ng/ml, 48 hours, HUVE cells. As for the experimental part:
Proliferation assays familiar to those skilled in the art using human umbilical vein endothelial (HUVE) cells were used to determine the effect of TFPI on bFGF-induced proliferation of human umbilical vein endothelial cells.
The proliferation assay involved the routine culturing of human umbilical vein endothelial (HUVE) cells to confluency in EGM media. The cells were trypsinized and plated in a 96-well plate at 5000 cells per well per 100 μL EBM media. The cells were allowed to adhere to the plate for at least 2 hours. Next, bFGF at 10 ng/ml and TFPI at various concentrations were added to the wells. The cells were cultured for 48 hours after which cell proliferation was determined using a standard uridine incorporation method.
Proliferation assays using HUVE cells, as described in Example 1, were used to determine the effect of heparin on TFPI inhibition of bFGF-induced proliferation. The purpose of this study was to determine whether heparin was able to neutralize the antiproliferative activity of TFPI.
TFPI was pre-incubated with equimolar concentrations of heparin and with concentrations of heparin that were five-fold in excess of the concentration of TFPI. The results are summarized below and are presented graphically in FIGS. 5a and 5b.
Cell proliferation assays, as described in Example 1, were conducted to determine the relative potency of native TFPI versus recombinant TFPI.
Cell proliferation assays, as described in Example 1, were conducted using full length recombinant TFPI, Platelet Factor 4 (PF-4), and recombinant Kringle 1-3 of Angiostatin™ peptide. Both PF-4 and Angiostatin™ peptide are known endogenous inhibitors of angiogenesis. PF-4 is a protein involved in the blood coagulation cascade and is referenced as an inhibitor of angiogenesis by Maione, T. et al. in the article “Inhibition of Angiogenesis by Recombinant Human Platelet Factor-4 and Related Peptides” Science 247:77 (1990). Angiostatin is a fragment of plasminogen and its inhibitory effect on angiogenesis is described by Cao, Y. et al. in the article “Kringle Domains of Human Angiostatin” J. Biol. Chem. 271:1 (1996).
PF-4 and TFPI were tested for inhibition of human umbilical vein endothelial cell (HUVEC) proliferation. Angiostatin™ peptide was tested for the inhibition of bovine capillary endothelial (BCE) proliferation.
Cell proliferation assays, as described above in Example 1, were conducted using fragments of recombinant TFPI containing the following domains: Kunitz-1, Kunitz-2, or Kunitz-3.

Setting [1] is: Example 3, native versus recombinant TFPI, read-out: Fifty percent inhibition of the bFGF-induced proliferation of HUVE cells.

Consider “PF-4: Platelet Factor 4, protein of the blood coagulation cascade, known endogenous inhibitor of angiogenesis [reference compound]”, for which the IC50 (Example 4, read-out: concentration required for 50% inhibition of HUVE cell proliferation) worked out at 1250 nM.
Consider “Purified From HepG2 cells: TFPI purified from HepG2 cells containing full length and carboxyl-terminal lacking molecules”, for which the “antiproliferative activity, plasma TFPI compared with HepG2 TFPI” value is on record as “comparable activities” and the “Effect on Proliferation” value is reported as “Inhibition of Proliferation”.
Take “Purified From Human Plasma: full length, fully glycosylated TFPI (molecular weight 43,000) purified from human plasma”: the “antiproliferative activity, plasma TFPI compared with HepG2 TFPI” value is “comparable activities” and the “Effect on Proliferation” value is on record as “Inhibition of Proliferation”. For the same substance, the IC50 under setting [1] came out at 75 nM.
Consider “Recombinant, Full Length: full length, partially glycosylated TFPI (molecular weight 35,000) produced recombinantly”, for which the “Effect on Proliferation” value is recorded as “Inhibition of Proliferation”. Besides, the IC50 under setting [1] turned out to be 150 nM. Also, the “potency relative to recombinant PF-4” value (HUVE cell proliferation, 50% inhibition compared) is recorded as “approximately ten times more potent”. The IC50 (HUVEC proliferation, Example 4 table, read-out: Concentration for 50% Inhibition) is approximately 125 nM. Where the note is “TFPI on HUVE cells versus Kringle 1-3 on BCE cells”, the “activity relative to recombinant Kringle 1-3 of angiostatin” value is listed as “more active”.
In the case of “TFPI: tissue factor pathway inhibitor, source not specified in the heparin experiment (SEQ ID No. 1)”, the “Antiproliferative Activity of TFPI (effect of heparin)” value is, setting by setting: (TFPI pre-incubated with equimolar heparin) “did not lose its antiproliferative activity; also recorded: No Effect”; (TFPI pre-incubated with heparin five-fold in excess of TFPI) “did not lose its antiproliferative activity; also recorded: No Effect”.
